The values below are quoted from earlier work in patent US20260263368A1, “DOUBLE-RELEASE THREE-LAYERED BR[…] AND PREPARATION METHOD THEREOF” (TAIZHOU OVERSEAS PHARMACEUTICALS, LTD., priority 2023, published 2026).

For the series the following is noted: background statement.

Take `CCC[C@@H]1CC(=O)N([C@@H](CC)C(N)=O)C1` [Brivaracetam, (2S)-2-[(4R)-2-oxo-4-propyltetrahydro-1H-pyrrol-1-yl]butanamide]: the water solubility result is on record as “good water solubility”.
